Laboratory results reported in patent US20060128792A1, “Deguelin as a chemopreventive agent for lung cancer” (priority 2002, published 2006).
Values joined by “and” are separate entries in the source; they are usually repeats but may differ in a detail not shown here. Identical values can stand only once.

Columns and labels:
Assay in all cases: MTT assay, growth inhibition by deguelin or deguelin derivatives
Assay type in all cases: cell-based
Details in all cases: 3 days
H322 = test system: H322
H1299 = test system: H1299
A549 = test system: A549
H596 = test system: H596
H460 = test system: H460
H358 = test system: H358

SMILES: C=C(C)[C@H]1Cc2c(ccc3c2O[C@@H]2COc4cc(OC)c(OC)cc4[C@@H]2C3=O)O1 [rotenone]
- MTT assay reading, Average (H322; H322, 0.01 μM): 0.4327
- MTT assay reading, individual replicate (H322; H322, 0.01 μM): 0.477 and 0.569 and 0.498 and 0.266 and 0.304 and 0.489 and 0.426
- MTT assay reading, Average (H322; H322, 0.1 μM): 0.3726
- MTT assay reading, individual replicate (H322; H322, 0.1 μM): 0.414 and 0.357 and 0.41 and 0.408 and 0.319 and 0.361 and 0.339
- MTT assay reading, Average (H322; H322, 0.5 μM): 0.322
- MTT assay reading, individual replicate (H322; H322, 0.5 μM): 0.262 and 0.328 and 0.307 and 0.34 and 0.378 and 0.353 and 0.286
- MTT assay reading, Average (H322; H322, 1 μM): 0.2547
- MTT assay reading, individual replicate (H322; H322, 1 μM): 0.229 and 0.223 and 0.225 and 0.288 and 0.226 and 0.338 and 0.254
- MTT assay reading, Average (H1299; H1299, 0.01 μM): 0.2794
- MTT assay reading, individual replicate (H1299; H1299, 0.01 μM): 0.249 and 0.392 and 0.221 and 0.209 and 0.261 and 0.311 and 0.313
- MTT assay reading, Average (H1299; H1299, 0.1 μM): 0.1907
- MTT assay reading, individual replicate (H1299; H1299, 0.1 μM): 0.25 and 0.3 and 0.158 and 0.09 and 0.125 and 0.235 and 0.177
- MTT assay reading, Average (H1299; H1299, 0.5 μM): 0.2391
- MTT assay reading, individual replicate (H1299; H1299, 0.5 μM): 0.308 and 0.259 and 0.248 and 0.197 and 0.195 and 0.179 and 0.288
- MTT assay reading, Average (H1299; H1299, 1 μM): 0.2753
- MTT assay reading, individual replicate (H1299; H1299, 1 μM): 0.226 and 0.193 and 0.23 and 0.175 and 0.76 and 0.148 and 0.195
- % control (A549; A549, 0.01 μM): 0.35%
- MTT assay reading, Average (A549; A549, 0.01 μM): 0.463
- MTT assay reading, individual replicate (A549; A549, 0.01 μM): 0.425 and 0.439 and 0.541 and 0.451 and 0.45 and 0.428 and 0.507
- % control (A549; A549, 0.1 μM): 0.27%
- MTT assay reading, Average (A549; A549, 0.1 μM): 0.3653
- MTT assay reading, individual replicate (A549; A549, 0.1 μM): 0.418 and 0.293 and 0.364 and 0.26 and 0.429 and 0.354 and 0.439
- % control (A549; A549, 0.5 μM): 0.27%
- MTT assay reading, Average (A549; A549, 0.5 μM): 0.3657
- MTT assay reading, individual replicate (A549; A549, 0.5 μM): 0.284 and 0.833 and 0.266 and 0.314 and 0.246 and 0.308 and 0.309
- % control (A549; A549, 1 μM): 0.13%
- MTT assay reading, Average (A549; A549, 1 μM): 0.1791
- MTT assay reading, individual replicate (A549; A549, 1 μM): 0.188 and 0.171 and 0.176 and 0.213 and 0.173 and 0.141 and 0.192
- MTT assay reading, Average (H596; H596, 0.01 μM): 0.4666
- MTT assay reading, individual replicate (H596; H596, 0.01 μM): 0.393 and 0.433 and 0.462 and 0.499 and 0.497 (2×) and 0.485
- MTT assay reading, Average (H596; H596, 0.1 μM): 0.3784
- MTT assay reading, individual replicate (H596; H596, 0.1 μM): 0.271 and 0.369 and 0.513 and 0.582 and 0.413 and 0.285 and 0.216
- MTT assay reading, Average (H596; H596, 0.5 μM): 0.2329
- MTT assay reading, individual replicate (H596; H596, 0.5 μM): 0.189 and 0.362 and 0.261 and 0.296 and 0.156 and 0.203 and 0.163
- MTT assay reading, Average (H596; H596, 1 μM): 0.177
- MTT assay reading, individual replicate (H596; H596, 1 μM): 0.205 (2×) and 0.123 and 0.193 and 0.172 and 0.161 and 0.18
- % control (H460; H460, 0.01 μM): 0.14%
- MTT assay reading, Average (H460; H460, 0.01 μM): 0.2486
- MTT assay reading, individual replicate (H460; H460, 0.01 μM): 0.092 and 0.412 and 0.24 and 0.191 and 0.228 and 0.242 and 0.335
- % control (H460; H460, 0.1 μM): 0.10%
- MTT assay reading, Average (H460; H460, 0.1 μM): 0.1766
- MTT assay reading, individual replicate (H460; H460, 0.1 μM): 0.143 and 0.107 and 0.138 and 0.161 and 0.242 and 0.268 and 0.177
- % control (H460; H460, 0.5 μM): 0.09%
- MTT assay reading, Average (H460; H460, 0.5 μM): 0.1499
- MTT assay reading, individual replicate (H460; H460, 0.5 μM): 0.185 and 0.159 and 0.143 and 0.1 and 0.104 and 0.117 and 0.241
- % control (H460; H460, 1 μM): 0.10%
- MTT assay reading, Average (H460; H460, 1 μM): 0.1763
- MTT assay reading, individual replicate (H460; H460, 1 μM): 0.071 and 0.467 and 0.127 and 0.144 and 0.138 and 0.118 and 0.169
- MTT assay reading, Average (H358; H358, 0.01 μM): 0.3171
- MTT assay reading, individual replicate (H358; H358, 0.01 μM): 0.298 and 0.253 and 0.268 and 0.348 and 0.331 and 0.329 and 0.393
- MTT assay reading, Average (H358; H358, 0.1 μM): 0.309
- MTT assay reading, individual replicate (H358; H358, 0.1 μM): 0.257 and 0.27 and 0.281 and 0.311 and 0.338 and 0.371 and 0.335
- MTT assay reading, Average (H358; H358, 0.5 μM): 0.2334
- MTT assay reading, individual replicate (H358; H358, 0.5 μM): 0.263 and 0.209 and 0.189 and 0.244 and 0.198 and 0.235 and 0.296
- MTT assay reading, Average (H358; H358, 1 μM): 0.2736
- MTT assay reading, individual replicate (H358; H358, 1 μM): 0.308 and 0.205 and 0.243 and 0.287 and 0.258 and 0.247 and 0.367
